From ChEMBL document CHEMBL4742387, “Condensed tricyclic compounds as protein kinase inhibitors” (2018)

Experiments:
CDK8/Cyclin C = CDK8/Cyclin C (Homo sapiens, UniProt P49336); test: Inhibition of kinase tracer 236 binding to full-length His-tagged recombinant human CDK8/cyclin C incubated for 60 mins by FRET based LanthaScreen Eu-Kinase binding assay; type: protein-complex assay
[1] = target: Cyclin-C/Cyclin-dependent kinase 19 (Homo sapiens, UniProt Q9BWU1); test: Inhibition of kinase tracer 236 binding to full-length His-tagged recombinant human CDK19/cyclin C incubated for 60 mins by FRET based LanthaScreen Eu-Kinase binding assay; type: protein-complex assay
Sequence of Cyclin-C/Cyclin-dependent kinase 19 (Q9BWU1 whole entry): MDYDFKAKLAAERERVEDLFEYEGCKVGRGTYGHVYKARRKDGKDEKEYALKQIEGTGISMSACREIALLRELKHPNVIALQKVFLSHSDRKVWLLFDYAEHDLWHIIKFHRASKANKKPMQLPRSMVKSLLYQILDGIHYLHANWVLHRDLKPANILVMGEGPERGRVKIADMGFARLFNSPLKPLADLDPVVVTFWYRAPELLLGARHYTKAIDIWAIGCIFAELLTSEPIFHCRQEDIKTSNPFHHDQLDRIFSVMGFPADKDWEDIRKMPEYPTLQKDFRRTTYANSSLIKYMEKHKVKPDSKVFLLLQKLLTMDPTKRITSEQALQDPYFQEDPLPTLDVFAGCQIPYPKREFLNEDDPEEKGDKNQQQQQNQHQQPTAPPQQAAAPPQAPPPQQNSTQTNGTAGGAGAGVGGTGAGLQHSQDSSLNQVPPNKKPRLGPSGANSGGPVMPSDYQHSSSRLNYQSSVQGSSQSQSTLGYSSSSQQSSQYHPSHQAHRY
Sequence of Cyclin-C/Cyclin-dependent kinase 19 (P24863 whole entry, further chain): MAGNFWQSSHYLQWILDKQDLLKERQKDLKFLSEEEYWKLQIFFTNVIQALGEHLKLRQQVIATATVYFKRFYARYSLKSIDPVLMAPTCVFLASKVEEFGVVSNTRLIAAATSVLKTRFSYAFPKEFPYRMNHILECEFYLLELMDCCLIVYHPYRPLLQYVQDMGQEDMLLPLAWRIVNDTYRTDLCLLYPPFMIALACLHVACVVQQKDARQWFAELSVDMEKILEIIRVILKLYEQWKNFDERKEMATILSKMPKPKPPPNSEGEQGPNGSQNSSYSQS

[2] = target: T1, Cyclin-dependent kinase 8 (Homo sapiens, UniProt P49336); test: Inhibition of CDK8 in human SW-620 cells assessed as reduction in IFNgamma-induced STAT1 S727 phosphorylation pre-incubated for 1 hr before IFNgamma stimulation for 3 hrs by Western blot analysis; type: cell-based; conditions: time 4.0 hrs
T1 sequence (P49336 whole entry): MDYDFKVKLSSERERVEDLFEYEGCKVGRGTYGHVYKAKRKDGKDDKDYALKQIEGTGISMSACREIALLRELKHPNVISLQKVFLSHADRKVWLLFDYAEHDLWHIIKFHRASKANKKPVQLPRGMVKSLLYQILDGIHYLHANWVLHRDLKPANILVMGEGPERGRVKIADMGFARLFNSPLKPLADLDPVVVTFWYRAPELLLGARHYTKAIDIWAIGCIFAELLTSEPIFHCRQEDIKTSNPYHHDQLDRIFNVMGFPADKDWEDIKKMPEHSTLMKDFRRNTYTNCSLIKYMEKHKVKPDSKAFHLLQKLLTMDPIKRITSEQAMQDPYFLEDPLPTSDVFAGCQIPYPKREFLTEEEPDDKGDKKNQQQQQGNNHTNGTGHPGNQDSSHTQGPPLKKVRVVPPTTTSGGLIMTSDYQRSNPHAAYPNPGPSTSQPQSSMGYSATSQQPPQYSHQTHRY

[3] = target: T2, Serine/threonine-protein kinase haspin (Homo sapiens) (UniProt Q8TF76); test: Inhibition of haspin in synchronized human SW620 cells assessed as reduction in IFNgamma-induced H3T3 phosphorylation pre-incubated for 1 hr before IFNgamma stimulation for 3 hrs by Western blot analysis; type: cell-based; conditions: SW-620, time 4.0 hrs
T2 sequence (whole entry): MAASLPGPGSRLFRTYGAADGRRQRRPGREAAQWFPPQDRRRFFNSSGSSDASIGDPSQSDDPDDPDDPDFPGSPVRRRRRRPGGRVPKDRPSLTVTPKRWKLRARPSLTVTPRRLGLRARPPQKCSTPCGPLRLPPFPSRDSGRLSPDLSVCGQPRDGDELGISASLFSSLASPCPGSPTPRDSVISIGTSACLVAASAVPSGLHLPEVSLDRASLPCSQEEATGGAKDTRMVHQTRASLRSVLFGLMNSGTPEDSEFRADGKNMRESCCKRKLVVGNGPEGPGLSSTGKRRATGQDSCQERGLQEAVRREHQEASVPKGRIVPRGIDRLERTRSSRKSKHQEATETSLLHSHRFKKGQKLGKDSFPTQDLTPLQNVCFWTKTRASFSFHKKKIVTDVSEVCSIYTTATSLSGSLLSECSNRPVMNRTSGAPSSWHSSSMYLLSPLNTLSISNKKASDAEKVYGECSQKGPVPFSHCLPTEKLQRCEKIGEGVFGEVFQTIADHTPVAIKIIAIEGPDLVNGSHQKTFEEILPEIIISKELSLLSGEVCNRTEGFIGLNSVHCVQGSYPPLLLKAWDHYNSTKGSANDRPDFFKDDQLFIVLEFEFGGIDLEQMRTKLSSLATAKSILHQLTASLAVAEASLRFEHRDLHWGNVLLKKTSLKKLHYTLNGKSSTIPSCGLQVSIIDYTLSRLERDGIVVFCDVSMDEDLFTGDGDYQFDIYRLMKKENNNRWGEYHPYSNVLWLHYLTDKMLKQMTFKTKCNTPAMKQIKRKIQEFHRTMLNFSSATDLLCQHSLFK

MV4-11 = test: Antiproliferative activity against human MV4-11 cells assessed as reduction in cell proliferation by CellTiter-Glo luminescent cell viability assay; type: functional
MDA-MB-231 = test: Antiproliferative activity against human MDA-MB-231 cells assessed as reduction in cell proliferation by CellTiter-Glo luminescent cell viability assay; type: functional
SW-620 = test: Antiproliferative activity against human SW-620 cells assessed as reduction in cell proliferation by CellTiter-Glo luminescent cell viability assay; type: functional
MOLM-13 = test: Antiproliferative activity against human MOLM-13 cells assessed as reduction in cell proliferation by CellTiter-Glo luminescent cell viability assay; type: functional
[4] = target: T1, Cyclin-dependent kinase 8; test: Inhibition of CDK8 in human SW-620 cells assessed as reduction in STAT1 S727 phosphorylation pre-incubated for 1 hr before IFNgamma stimulation for 3 hrs by Western blot analysis; type: cell-based; conditions: time 4.0 hrs
[5] = target: T2, Serine/threonine-protein kinase haspin (Homo sapiens); test: Inhibition of haspin in human SW620 cells assessed as reduction in IFNgamma-induced H3T3 phosphorylation pre-incubated for 1 hr before IFNgamma stimulation for 3 hrs by Western blot analysis; type: cell-based; conditions: SW-620, time 4.0 hrs
[6] = target: T3, Serine/threonine-protein kinase haspin (Homo sapiens, UniProt Q8TF76); test: Inhibition of GST-tagged recombinant human haspin kinase domain incubated for 60 mins by ADP-Glo luminescent kinase assay
T3 sequence (Q8TF76 whole entry): T2 sequence (whole entry)

Sequence of CDK8/Cyclin C (P49336 whole entry): as the sequence (P49336 whole entry) above
Sequence of CDK8/Cyclin C (P24863 whole entry, further chain): as the sequence (P24863 whole entry, further chain) above

| SMILES | GI50 (MV4-11; Homo sapiens, MV4-11) | GI50 (MDA-MB-231; Homo sapiens, MDA-MB-231) | GI50 (SW-620; Homo sapiens, SW-620) | GI50 (MOLM-13; Homo sapiens, MOLM-13) | INH [4] | further results |
| --- | --- | --- | --- | --- | --- | --- |
| NC(=O)c1cc2c([nH]1)-c1ccncc1OC2C1CCCCC1 (stereo unspecified) | < 1000 nM | 1000 nM | < 1000 nM | < 1000 nM | – | IC50 (CDK8/Cyclin C): 19.3 nM; IC50 [1]: 87.3 nM; INH [2]: < 500 nM; INH [3]: 500 nM |
| NC(=O)c1cc2c([nH]1)-c1ccncc1OC2C1CCOCC1 (stereo in doubt; form 1) [listing 1 of 2 here] | – | – | – | – | – | INH [2]: 500 nM; INH [3]: 500 nM |
| NC(=O)c1cc2c(n1CCF)-c1ccncc1OC21CCCCC1 | < 1000 nM | 1000 nM | 1000 nM | < 1000 nM | < 500 nM | INH [5]: < 500 nM |
| NC(=O)c1cc2c([nH]1)-c1ccncc1OC21CCC1 | < 1000 nM | 1000 nM | 10000 nM | < 1000 nM | < 500 nM | – |
| CC1(C)Oc2cnccc2-c2[nH]c(C(N)=O)cc21 | 1000 nM | 10000 nM | – | – | – | – |
| CCn1c(C(N)=O)c(-c2ccccc2OC)c2c1-c1ccncc1OC2(C)C | < 1000 nM | 10000 nM | 10000 nM | < 1000 nM | < 500 nM | INH [2]: < 500 nM; INH [3]: < 500 nM; INH [5]: < 500 nM |
| NC(=O)c1cc2c(n1CCF)-c1ccncc1OC21CCC1 | < 1000 nM | 1000 nM | 1000 nM | < 1000 nM | < 500 nM | – |
| CCn1c(C(N)=O)cc2c1-c1ccncc1OC21CCCCC1 [listing 1 of 3 here] | < 1000 nM | 1000 nM | 1000 nM | < 1000 nM | – | – |
| CCn1c(C(N)=O)cc2c1-c1ccncc1OC2C1CCOCC1 (stereo unspecified) | – | – | – | – | – | IC50 (CDK8/Cyclin C): < 1.41 nM; IC50 [6]: 355 nM |
| NC(=O)c1cc2c([nH]1)-c1ccncc1O[C@H]2C1CCCCC1 | < 1000 nM | 10000 nM | 1000 nM | 1000 nM | < 500 nM | IC50 (CDK8/Cyclin C): 8.5 nM; IC50 [1]: 7.14 nM; INH [2]: < 500 nM; INH [3]: < 500 nM; INH [5]: < 500 nM |
| CCn1c(C(N)=O)cc2c1-c1ccncc1OC21CCCCC1 [listing 2 of 3 here] | – | – | – | – | < 500 nM | INH [5]: < 500 nM |
| NC(=O)c1cc2c([nH]1)-c1ccncc1OC2C1CCOCC1 (stereo in doubt; form 1) [listing 2 of 2 here] | < 1000 nM | – | – | 1000 nM | – | IC50 (CDK8/Cyclin C): 281 nM; IC50 [6]: 5760 nM; GI50 (MDA-MB-231): 1000 nM; GI50 (SW-620): 1000 nM |
| CCn1c(C(N)=O)cc2c1-c1ccncc1OC21CCOCC1 | < 1000 nM | 1000 nM | 1000 nM | < 1000 nM | < 500 nM | INH [5]: < 500 nM |
| CCn1c(C(N)=O)cc2c1-c1ccncc1OC21CCCCC1 [listing 3 of 3 here] | – | – | – | – | – | IC50 (CDK8/Cyclin C): 301 nM |
| NC(=O)c1cc2c([nH]1)-c1ccncc1OC2C1CCOCC1 (stereo in doubt; form 2) [listing 1 of 2 here] | – | – | – | – | – | IC50 (CDK8/Cyclin C): 4.46 nM; IC50 [6]: 406 nM; IC50 [1]: 14.2 nM; GI50 (MV4-11): 1000 nM; GI50 (MDA-MB-231): 10000 nM; GI50 (SW-620): 10000 nM |
| COc1ccc(S(=O)(=O)Nc2cccnc2Nc2ccc(O)cc2)cc1 [ABT-751] | – | – | 500 nM | – | – | – |
| CC1(C)Oc2cncc(Cl)c2-c2[nH]c(C(N)=O)cc21 | < 1000 nM | – | – | – | – | – |

| SMILES | GI50 (MV4-11; Homo sapiens, MV4-11) | GI50 (MDA-MB-231; Homo sapiens, MDA-MB-231) | GI50 (SW-620; Homo sapiens, SW-620) | GI50 (MOLM-13; Homo sapiens, MOLM-13) | INH [4] | further results |
| --- | --- | --- | --- | --- | --- | --- |
| NC(=O)c1cc2c([nH]1)-c1ccncc1OC2C1CCOCC1 (stereo in doubt; form 2) [listing 2 of 2 here] | – | – | – | – | – | INH [2]: < 500 nM; INH [3]: 500 nM |
| NC(=O)c1cc2c([nH]1)-c1ccncc1OC21CCN(CCc2ccccc2)CC1 | < 1000 nM | 1000 nM | 1000 nM | < 1000 nM | – | – |
| CC1(C)Oc2cnccc2-c2[nH]c(C(N)=O)c(C3CC3)c21 | < 1000 nM | 1000 nM | 1000 nM | 1000 nM | < 500 nM | – |
| COCCn1c(C(N)=O)cc2c1-c1ccncc1OC2(C)C | – | – | – | – | – | INH [2]: < 500 nM; INH [3]: < 500 nM |
| CCn1c(C(N)=O)c(Cl)c2c1-c1ccncc1OC21CCCCC1 | – | – | – | – | – | IC50 (CDK8/Cyclin C): < 1.41 nM |
| CC1(C)Oc2cnccc2-c2c1cc(C(N)=O)n2CCF | < 1000 nM | 1000 nM | 1000 nM | < 1000 nM | < 500 nM | INH [2]: < 500 nM; INH [3]: < 500 nM; INH [5]: < 500 nM |
| CCn1c(C(N)=O)cc2c1-c1ccncc1OC2C1CCCCC1 (stereo in doubt; form 2) [listing 1 of 2 here] | – | – | – | – | – | IC50 (CDK8/Cyclin C): 1.36 nM; IC50 [6]: 522 nM; GI50 (MOLM-13): 1000 nM |
| CCn1c(C(N)=O)cc2c1-c1ccncc1OC2C1CCCCC1 (stereo in doubt; form 2) [listing 2 of 2 here] | – | – | – | – | < 500 nM | INH [5]: < 500 nM |
| CCn1c(C(N)=O)c(-c2cccc(OC)c2)c2c1-c1ccncc1OC2(C)C | < 1000 nM | 10000 nM | 10000 nM | 1000 nM | – | – |
| Cn1c(C(N)=O)cc2c1-c1ccncc1OC21CCCCC1 | < 1000 nM | 1000 nM | 1000 nM | < 1000 nM | < 500 nM | – |
| Cn1c(C(N)=O)cc2c1-c1ccncc1OC2(C)C | < 1000 nM | 1000 nM | 10000 nM | 1000 nM | – | – |
| NC(=O)c1cc2c([nH]1)-c1ccncc1OC21CCN(CC(F)(F)F)CC1 | 1000 nM | 10000 nM | 10000 nM | 1000 nM | – | – |
| CCn1c(C(N)=O)cc2c1-c1ccncc1OC21CCN(CC(F)(F)F)CC1 | < 1000 nM | 1000 nM | 1000 nM | < 1000 nM | < 500 nM | INH [5]: < 500 nM |
| NC(=O)c1cc2c(n1CCF)-c1ccncc1OC21CCOCC1 | – | – | – | – | – | IC50 (CDK8/Cyclin C): < 1.41 nM |
| COCCn1c(C(N)=O)cc2c1-c1ccncc1OC21CCOCC1 | 1000 nM | 10000 nM | 10000 nM | 10000 nM | – | – |
| Cn1c(C(N)=O)cc2c1-c1ccncc1OC21CCOCC1 | < 1000 nM | 1000 nM | 1000 nM | < 1000 nM | – | – |
| CCn1c(C(N)=O)cc2c1-c1ccncc1OC2C1CCCCC1 (stereo in doubt; form 1) | < 1000 nM | 10000 nM | 10000 nM | < 1000 nM | – | IC50 (CDK8/Cyclin C): 0.407 nM; IC50 [6]: 95.2 nM; IC50 [1]: 1.41 nM |
